Counter-ions that a name gives are not always drawn.
Columns and labels:
Assay in all cases: Anti-proliferation assay (ATPLite), Chalice synergy score
Assay type in all cases: cell-based
[1] = system: HCC-1187; set-up: scale not given here; details: Compound 1 in combination with the named second active agent, 72 h, mean of n = 3 experiments in triplicate
Source text: (§1) Cells were thawed from a liquid nitrogen preserved state.
(§2) The calculation for synergy score is provided below.
(§3) If T≧V0:100*[1−(T−V0)/(V−V0)]

[2] = system: BT-20; set-up: scale not given here; details: Compound 1 in combination with the named second active agent, 72 h, mean of n = 3 experiments in triplicate
Source text: as §1, §2, §3

[3] = system: HCC-1500; set-up: scale not given here; details: Compound 1 in combination with the named second active agent, 72 h, mean of n = 3 experiments in triplicate
Source text: as §1, §2, §3

[4] = system: MDA-MB-436; details: Compound 1 in combination with second active agent, mean self-cross + 2σ threshold 1.91
Source text: as §1, §2, §3

[5] = system: HCC70; details: Compound 1 in combination with second active agent; HCC-70; mean self-cross + 2σ threshold 3.45
Source text: as §1, §2, §3

[6] = system: MDA-MB-157; details: Compound 1 in combination with second active agent, mean self-cross + 2σ threshold 4.68
Source text: as §1, §2, §3

[7] = system: BT-474; details: Compound 1 in combination with the named second active agent, 72 h, mean of n = 3 experiments in triplicate
Source text: as §1, §2, §3

[8] = system: HCC-1937; details: Compound 1 in combination with the named second active agent, 72 h, mean of n = 3 experiments in triplicate
Source text: as §1, §2, §3

[9] = system: MDA-MB-231; details: Compound 1 in combination with second active agent, mean self-cross + 2σ threshold 2.61
Source text: as §1, §2, §3

[10] = system: HCC-1806; details: Compound 1 in combination with the named second active agent, 72 h, mean of n = 3 experiments in triplicate
Source text: as §1, §2, §3

[11] = system: BT-549; details: Compound 1 in combination with the named second active agent, 72 h, mean of n = 3 experiments in triplicate
Source text: as §1, §2, §3

[12] = system: MDA-MB-468; details: Compound 1 in combination with second active agent, mean self-cross + 2σ threshold 4.66
Source text: as §1, §2, §3

[13] = system: MCF7; details: Compound 1 in combination with second active agent, mean self-cross + 2σ threshold 3.07
Source text: as §1, §2, §3

[14] = system: HCC-1428; details: Compound 1 in combination with the named second active agent, 72 h, mean of n = 3 experiments in triplicate
Source text: as §1, §2, §3

[15] = system: Hs-578-T; details: Compound 1 in combination with second active agent, mean self-cross + 2σ threshold 4.09
Source text: as §1, §2, §3

Row | Compound | Synergy score [1] | Synergy score [2] | Synergy score [3] | Synergy score [4] | Synergy score [5] | Synergy score [6] | Synergy score [7] | Synergy score [8] | Synergy score [9] | Synergy score [10] | Synergy score [11] | Synergy score [12] | Synergy score [13] | Synergy score [14] | Synergy score [15]
1 | CC[C@@]1(O)C(=O)OCc2c1cc1n(c2=O)Cc2cc3cc(O)ccc3nc2-1 [10-Hydroxycamptothecin] | 6.49 | 6.15 | 4.43 | 3.62 | 6.31 | 10.30 | 1.20 | 12.40 | 8.55 | 3.88 | 4.11 | 7.86 | 3.80 | 4.13 | 1.70
2 | CN(C)CC[C@H](CSc1ccccc1)Nc1ccc(S(=O)(=O)NC(=O)c2ccc(N3CCN(Cc4ccccc4-c4ccc(Cl)cc4)CC3)cc2)cc1[N+](=O)[O-] [ABT-737] | 8.77 | 7.28 | 4.23 | 0.56 | 9.10 | 4.46 | 4.14 | 5.46 | 10.00 | 6.15 | 6.10 | 8.29 | 6.97 | 10.60 | 10.00
3 | O=C(NC1CCNCC1)c1[nH]ncc1NC(=O)c1c(Cl)cccc1Cl [AT7519] | – | 4.95 | 0.03 | 2.57 | 0.86 | 5.37 | 0.19 | 2.04 | 2.68 | 1.01 | 4.33 | 1.98 | 2.84 | 1.58 | 5.16
4 | CS(=O)(=O)c1ccc(C(=O)Nc2ccc(Cl)c(-c3ccccn3)c2)c(Cl)c1 [GDC-0449] | 3.07 | 0.11 | 0.78 | – | 1.10 | 0.77 | 1.47 | 0.88 | 0.08 | 0.20 | – | 0.44 | – | 0.07 | 0.28
5 | CNC(=O)c1ccc(-c2cnc3ncc(Cc4ccc5ncccc5c4)n3n2)cc1F [INCB28060] | 2.94 | – | 0.52 | 0.49 | 0.75 | 0.97 | 2.35 | 0.71 | 0.34 | 0.62 | 0.66 | 0.80 | 0.92 | 0.75 | 0.85
6 | CCc1c2c(nc3ccc(OC(=O)N4CCC(N5CCCCC5)CC4)cc13)-c1cc3c(c(=O)n1C2)COC(=O)[C@]3(O)CC [Irinotecan Hydrochloride] | 3.01 | 2.59 | 4.45 | 3.61 | 1.98 | 5.71 | 1.17 | 3.92 | 1.64 | – | 1.25 | 8.45 | 2.02 | 0.76 | –
7 | c1ccc2c(CCNc3ccc(Nc4ccncc4)cc3)c[nH]c2c1 [JNJ 26854165] | 1.63 | 1.42 | 1.50 | 1.47 | 2.46 | 2.53 | 1.77 | – | 0.31 | 2.51 | 0.78 | 3.28 | 1.82 | 1.02 | 1.28
8 | CC(C)(C)Cn1c(N)nc2ccc(-c3[nH]c(C(C)(C)C)nc3-c3ccc(F)cc3)nc21 [LY2228820] | 0.80 | 0.20 | 3.91 | 1.32 | 3.65 | 5.64 | 2.81 | – | 2.18 | 2.81 | 1.26 | 5.77 | 3.76 | 1.80 | –
9 | COc1ccc(C2=N[C@@H](c3ccc(Cl)cc3)[C@@H](c3ccc(Cl)cc3)N2C(=O)N2CCNC(=O)C2)c(OC(C)C)c1 [Nutlin-3] | 2.08 | 0.27 | 2.54 | 0.50 | 2.72 | 0.66 | 0.34 | 0.58 | 0.27 | 0.79 | 0.40 | – | 2.05 | 0.33 | 1.65
10 | C=CC(=O)N1CCC[C@@H](n2nc(-c3ccc(Oc4ccccc4)cc3)c3c(N)ncnc32)C1 [PCI-32765] | 1.70 | 6.26 | 0.56 | 0.07 | 6.29 | 3.28 | 5.95 | 1.62 | 0.27 | 3.72 | 0.05 | 3.10 | 0.13 | 0.59 | –
11 | CC(=O)c1c(C)c2cnc(Nc3ccc(N4CCNCC4)cn3)nc2n(C2CCCC2)c1=O [PD-0332991] | 2.76 | – | 2.71 | 0.44 | 2.17 | 0.73 | 0.31 | 0.55 | 2.88 | 1.54 | 1.10 | 2.12 | 2.48 | 2.01 | 0.75
12 | Oc1c2ccccc2c2c3c(cccc13)N=N2 [SP 600125] | 5.59 | 0.00 | 1.15 | 0.79 | 3.49 | 1.18 | 0.72 | 0.87 | 0.65 | 1.16 | 1.47 | – | 0.75 | 1.44 | 0.97
13 | CHIR98014 | 3.13 | 0.17 | – | 0.64 | 0.82 | 3.17 | 0.02 | 0.63 | 3.91 | 1.56 | 0.49 | 3.00 | 0.29 | 0.72 | 5.48
